These are literature values, as cited in US11744789B2, “Method for dyeing keratinous material, comprising the use of an organosilicon compound, a colored effect pigment and a sealing reagent III” (Henkel AG & Co. KGaA, priority 2019, dated 2023).

For the data set the following is noted: for solubility in water: 25° C.

For `O=S(=O)(O)c1ccc(N=Nc2c(O)ccc3ccccc23)cc1` [Acid Orange 7, 4-[(2-hydroxy-1-naphthyl)azo]benzene sulphonate], the solubility in water result is “more than 7 g/L”. For the molecule `O=[N+]([O-])c1cc([N+](=O)[O-])c2ccc(S(=O)(=O)O)cc2c1O` [Acid Yellow 9, 8-hydroxy-5,7-dinitro-2-naphthalenesulfonic acid], the solubility in water result was “above 40 g/L”.

As for `O=C(O)C1=NN(c2ccc(S(=O)(=O)O)cc2)C(=O)C1N=Nc1ccc(S(=O)(=O)O)cc1` (stereo not drawn) [Acid Yellow 23, 4,5-dihydro-5-oxo-1-(4-sulfophenyl)-4-((4-sulfophenyl)azo)-1H-pyrazole-3-carboxylic acid], the “solubility in water (in words)” value (at 25° C.) is given as “highly soluble in water”.
